Assays:
Conditions in all cases: incubation time: 72 h
[1] = test system: BT-474; assay: normalised viability (% of control), CellTiter-Blue; higher = more viable cells (about 100 = DMSO control)
Protocol: (§1)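 DSRT, CellTiter-Blue viability, 72 h incubation. Signal is normalised to DMSO and benzethonium chloride controls. Value is the normalised response at dose 3.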

[2] = test system: BT-549; assay: as above
Protocol: as §1

[3] = test system: CAL-120; assay: as above
Protocol: as §1

[4] = test system: CAL-148; assay: as above
Protocol: as §1

[5] = test system: CAL-51; assay: as above
Protocol: as §1

[6] = test system: CAL-85-1; assay: as above
Protocol: as §1

[7] = test system: DU-4475; assay: as above
Protocol: as §1

[8] = test system: HCC1143; assay: as above
Protocol: as §1

[9] = test system: HCC1599; assay: as above
Protocol: as §1

[10] = test system: HCC1937; assay: as above
Protocol: as §1

[11] = test system: HDQ-P1; assay: as above
Protocol: as §1

[12] = test system: Hs578T; assay: as above
Protocol: as §1

[13] = test system: MDA-MB-231; assay: as above
Protocol: as §1

[14] = test system: MDA-MB-436; assay: as above
Protocol: as §1

[15] = test system: MDA-MB-453; assay: as above
Protocol: as §1

[16] = test system: MDA-MB-468; assay: as above
Protocol: as §1

[17] = test system: MFM-223; assay: as above
Protocol: as §1

[18] = test system: SK-BR-3; assay: as above
Protocol: as §1

[19] = test system: BT-474; assay: normalised viability (% of control), CellTiter-Blue; higher = more viable cells (about 100 = DMSO control); remark: listed apart in the source
Method in brief: (§2)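 Breast cancer cell lines were treated for 72 h in 384-well format and measured by CellTiter-Blue fluorescence at 560/590 nm. Results were normalised per plate to vehicle (100) and a positive kill control (0). The entry is normalised viability at a single listed concentration of the series.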

[20] = test system: DU-4475; assay: as above; remark: listed apart in the source
Method in brief: as §2

[21] = test system: HCC1143; assay: as above; remark: listed apart in the source
Method in brief: as §2

[22] = test system: HCC1599; assay: as above; remark: listed apart in the source
Method in brief: as §2

[23] = test system: HCC1937; assay: as above; remark: listed apart in the source
Method in brief: as §2

[24] = test system: Hs578T; assay: as above; remark: listed apart in the source
Method in brief: as §2

[25] = test system: MDA-MB-436; assay: as above; remark: listed apart in the source
Method in brief: as §2

[26] = test system: MDA-MB-453; assay: as above; remark: listed apart in the source
Method in brief: as §2

[27] = test system: MDA-MB-453; assay: drug sensitivity score (DSS), CellTiter-Blue viability (DSS (AUC-based score)); higher = stronger viability inhibition; extreme values may be limits of the assay
Protocol: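 DSRT with the CellTiter-Blue (resazurin reduction) viability readout, fluorescence 560/590 nm, 72 h incubation. Plates were normalised to DMSO and benzethonium chloride controls. DSS is computed from the area under the fitted dose-response curve (5 or 9 concentrations).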

CCNC(=O)CCC/C=C\C[C@@H]1[C@@H](/C=C/[C@@H](O)CCc2ccccc2)[C@H](O)C[C@@H]1O [Bimatoprost]
Conditions | normalised viability [%]
[1], 55 nM | 126
[2], 55 nM | 98.7
[3], 55 nM | 95.4
[4], 5.5 nM | 90.1
[5], 5.5 nM | 113
[6], 5.5 nM | 104
[7], 5.5 nM | 120
[8], 55 nM | 100
[9], 55 nM | 123
[10], 55 nM | 102
[11], 5.5 nM | 99.7
[12], 55 nM | 80.7
[13], 55 nM | 96.8
[14], 55 nM | 115
[15], 5.5 nM | 105
[16], 55 nM | 106
[17], 55 nM | 108
[18], 55 nM | 82.1
[19], 5.5 nM | 112
[19], 550 nM | 106
[19], 5500 nM | 127
[20], 1.65 nM | 112
[20], 16.5 nM | 99.4
[20], 55 nM | 95.5
[21], 5.5 nM | 102
[21], 550 nM | 104
[21], 5500 nM | 94.2
[22], 5.5 nM | 111
[22], 550 nM | 111
[22], 5500 nM | 112
[23], 5.5 nM | 106
[23], 550 nM | 99.9
[23], 5500 nM | 89.6
[24], 5.5 nM | 110
[24], 550 nM | 116
[24], 5500 nM | 98.1
[25], 5.5 nM | 111
[25], 550 nM | 111
[25], 5500 nM | 103
[26], 1.65 nM | 116
[26], 16.5 nM | 91.7
[26], 55 nM | 92.5

Conditions | drug sensitivity score
[27] | 0

COc1cc(Nc2c(C#N)cnc3cc(OCCCN4CCN(C)CC4)c(OC)cc23)c(Cl)cc1Cl [Bosutinib]
Conditions | normalised viability [%]
[1], 100 nM | 103
[2], 100 nM | 113
[3], 100 nM | 90.4
[4], 10 nM | 84.6
[5], 10 nM | 116
[6], 10 nM | 108
[7], 10 nM | 109
[8], 100 nM | 84.3
[9], 100 nM | 108
[10], 100 nM | 98.2
[11], 10 nM | 128
[12], 100 nM | 106
[13], 100 nM | 121
[14], 100 nM | 130
[15], 10 nM | 104
[16], 100 nM | 107
[17], 100 nM | 90.3
[18], 100 nM | 74.8
[19], 10 nM | 113
[19], 1000 nM | 94.6
[19], 10000 nM | 6.35
[20], 3 nM | 105
[20], 30 nM | 108
[20], 100 nM | 86.5
[21], 10 nM | 83.8
[21], 1000 nM | 73
[21], 10000 nM | 48.9
[22], 10 nM | 131
[22], 1000 nM | 93.3
[22], 10000 nM | 51.7
[23], 10 nM | 106
[23], 1000 nM | 84.9
[23], 10000 nM | 8.95
[24], 10 nM | 120
[24], 1000 nM | 98.2
[24], 10000 nM | 27.4
[25], 10 nM | 111
[25], 1000 nM | 95
[25], 10000 nM | 16.8
[26], 3 nM | 120
[26], 30 nM | 107
[26], 100 nM | 105

Conditions | drug sensitivity score
[27] | 6.37

CCN(CC)CCCC(C)Nc1ccnc2cc(Cl)ccc12 (configuration not stated) [Chloroquine]
Conditions | normalised viability [%]
[1], 9.9 nM | 104
[2], 9.9 nM | 104
[3], 9.9 nM | 102
[4], 0.99 nM | 85
[5], 0.99 nM | 90.3
[6], 0.99 nM | 94.8
[7], 0.99 nM | 98.2
[8], 9.9 nM | 87.7
[9], 9.9 nM | 128
[10], 9.9 nM | 115
[11], 0.99 nM | 106
[12], 9.9 nM | 90.2
[13], 9.9 nM | 107
[14], 9.9 nM | 117
[15], 0.99 nM | 100
[16], 9.9 nM | 105
[17], 9.9 nM | 98.2
[18], 9.9 nM | 92
[19], 0.99 nM | 109
[19], 99 nM | 108
[19], 990 nM | 111
[20], 0.297 nM | 106
[20], 2.97 nM | 89.8
[20], 9.9 nM | 112
[21], 0.99 nM | 97.8
[21], 99 nM | 89.2
[21], 990 nM | 93.4
[22], 0.99 nM | 100
[22], 99 nM | 85.6
[22], 990 nM | 119
[23], 0.99 nM | 100
[23], 99 nM | 111
[23], 990 nM | 100
[24], 0.99 nM | 92
[24], 99 nM | 106
[24], 990 nM | 93.1
[25], 0.99 nM | 133
[25], 99 nM | 104
[25], 990 nM | 141
[26], 0.297 nM | 108
[26], 2.97 nM | 111
[26], 9.9 nM | 105

Conditions | drug sensitivity score
[27] | 0

Cn1cc(C2=C(c3cn(C4CCN(Cc5ccccn5)CC4)c4ccccc34)C(=O)NC2=O)c2ccccc21 [Enzastaurin]
Conditions | normalised viability [%]
[1], 100 nM | 108
[2], 100 nM | 104
[3], 100 nM | 91.6
[4], 10 nM | 95.3
[5], 10 nM | 108
[6], 10 nM | 96.9
[7], 10 nM | 123
[8], 100 nM | 98
[9], 100 nM | 114
[10], 100 nM | 86.2
[11], 10 nM | 123
[12], 100 nM | 68.7
[13], 100 nM | 93.5
[14], 100 nM | 84.9
[15], 10 nM | 97.5
[16], 100 nM | 105
[17], 100 nM | 92.7
[18], 100 nM | 69.8
[19], 10 nM | 104
[19], 1000 nM | 92.7
[19], 10000 nM | 67
[20], 3 nM | 91.1
[20], 30 nM | 103
[20], 100 nM | 94.2
[21], 10 nM | 76.8
[21], 1000 nM | 64.8
[21], 10000 nM | 61.5
[22], 10 nM | 101
[22], 1000 nM | 93.2
[22], 10000 nM | 82.4
[23], 10 nM | 91.1
[23], 1000 nM | 75.6
[23], 10000 nM | 48.9
[24], 10 nM | 91.2
[24], 1000 nM | 68
[24], 10000 nM | 32.6
[25], 10 nM | 127
[25], 1000 nM | 56.1
[25], 10000 nM | 57.8
[26], 3 nM | 107
[26], 30 nM | 93.7
[26], 100 nM | 87.8

Conditions | drug sensitivity score
[27] | 7.69
